According to publication PMC9772450, “Gel-forming antagonist provides a lasting effect on CGRP-induced vasodilation” (Frontiers in Pharmacology, 2022):
Non-standard residues stand in square brackets, D forms with d. Residues, ends and D or L forms follow the SMILES beside them. *: point of attachment. Palmitoyl = CCCCCCCCCCCCCCCC(=O)*; Hyp = O=C(O)[C@@H]1C[C@@H](O)CN1; Cit = NC(=O)NCCC[C@H](N)C(=O)O; Orn = NCCC[C@H](N)C(=O)O; Dab = NCC[C@H](N)C(=O)O; Nva = CCC[C@H](N)C(=O)O; Abu = CC[C@H](N)C(=O)O; Aib = CC(C)(N)C(=O)O; Ahx = NCCCCCC(=O)O; βAla = NCCC(=O)O

What was measured:
[1] = target: T1, CLR/RAMP1 receptor (Homo sapiens, UniProt O60894+Q16602); test: HitHunter cAMP XS+ CALCRL-RAMP1 cAMP assay, antagonist mode; format: cell-based; settings: for Maximum response: antagonist mode, β-CGRP at EC80, 10-point curve, duplicate
T1 construct: host or cells: CHO-K1 (cAMP Hunter cell line)
Experimental: The assay of the antagonistic activity of analogs was conducted by the Eurofins Discoverx using the HitHunter cAMP XS + assay as described earlier ([Bradley and McLoughlin, 2009]; [Chang and Hsu, 2019]). The dose-dependent inhibitory effect of antagonists was studied in duplicate, at 10 different concentrations. Determination of the half-maximal inhibitory concentration (IC50) was performed using a 10-point dose-response curve. The starting concentration was 10 μM, and it was serially diluted 3-fold, in DMSO. […] Using the Hit Hunter® assay (CALCRL-RAMP1 cAMP assay in the antagonist mode; https://www.discoverx.com/products/cell-line/cho-k1-calcrl-ramp1-gs-cell-line-95-0164c2), the eight compounds in Table 1 were assayed side-by-side once, and the IC50 was derived based on the standard assay of duplicate samples of a ten-point curve. In this homogenous, non-imaging assay, the activation of CLR/RAMP1 signaling was evaluated using the Enzyme Fragment Complementation (EFC) technology with β-galactosidase (β-Gal) as the functional reporter. The enzyme was split into two complementary portions: an enzyme acceptor and an enzyme donor. The enzyme donor is fused to cAMP and it competes with cAMP generated by cells
For binding to a cAMP-specific antibody. Active β-Gal is formed by complementation of exogenous enzyme acceptor to any unbound enzyme donor-cAMP. The active enzyme then converted a chemiluminescent substrate to generate a signal. Briefly, cAMP Hunter cell lines with the select receptor were expanded from freezer stocks ([Bradley and McLoughlin, 2009]), and cells were seeded in a total volume of 20 μL into 384-well microplates and incubated at 37°C for the appropriate time. […] Intermediate dilution of samples was performed to generate 4X sample in the assay buffer. Before the assay, media was aspirated from cells and replaced with 10 μL 1:1 HBSS/Hepes:cAMP XS + Ab reagent, and 5 μL of 4X compound was added to the cells and incubated for 30 min. […] Vehicle concentration was 1%.
The chemiluminescent signal was read with a PerkinElmer chemiluminescent plate reader. The compound activity was analyzed using a CBIS data analysis suite (ChemInnovation, CA). The percentage inhibition was calculated using the following formula: % Inhibition = 100% x (1 - (mean RLU of test sample - mean RLU of vehicle control)/(mean RLU of EC80 control - mean RLU of vehicle control)). Data were normalized to the maximal and minimal response observed in the presence of EC80 agonist and vehicle.

[2] = Visual (tube-tapping) assay of gel-forming capability and solubility; format: physicochemical; set-up: key to Gel-forming ability: Y: can form a liquid gel; N: lacks the ability to efficiently form a liquid gel; settings: visual inspection of 11% peptide solutions, tube-tapping, 20 min after mixing
Experimental: To evaluate the ability of peptides to form gels in situ, we initially determined this tendency qualitatively based on visual examinations of peptide solutions using a tube-tapping method. In addition, we quantitatively determined the viscosity of select peptide solutions using a viscometer (Rheosense Inc; http://www.rheosense.com/products/viscometers) ([Yan and Pochan, 2010]). In the visual assay, aliquots of peptides were dissolved in an aqueous solution (i.e., de-ionized water, saline, or 5% glucose solution). The peptide that dissolved instantly and stayed as a clear solution without obvious macroscopic change in viscosity at 20 min after mixing was considered soluble. If macroscopic particles of peptides remained in the solution at 20 min after mixing, the peptide was considered insoluble.

T1 sequence (Q16602 23-461): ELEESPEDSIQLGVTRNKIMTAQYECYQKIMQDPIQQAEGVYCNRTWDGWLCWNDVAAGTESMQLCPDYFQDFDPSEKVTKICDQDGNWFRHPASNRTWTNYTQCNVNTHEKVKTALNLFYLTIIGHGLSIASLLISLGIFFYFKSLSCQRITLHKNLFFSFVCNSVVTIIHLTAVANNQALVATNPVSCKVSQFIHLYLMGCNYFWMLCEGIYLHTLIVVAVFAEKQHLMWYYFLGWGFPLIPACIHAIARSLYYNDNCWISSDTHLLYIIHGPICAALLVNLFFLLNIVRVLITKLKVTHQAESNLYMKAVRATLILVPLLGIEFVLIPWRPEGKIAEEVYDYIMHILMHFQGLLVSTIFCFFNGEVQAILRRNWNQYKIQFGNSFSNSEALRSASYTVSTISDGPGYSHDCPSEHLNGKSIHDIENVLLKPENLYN
T1 sequence (O60894 27-148): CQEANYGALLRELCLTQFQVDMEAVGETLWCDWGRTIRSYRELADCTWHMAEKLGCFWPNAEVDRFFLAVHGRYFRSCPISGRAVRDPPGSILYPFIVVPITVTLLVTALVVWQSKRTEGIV

## NCCCC[C@H](NC(=O)[C@@H](Cc1cc(Br)c(O)c(Br)c1)NC(=O)N1CCC(N2Cc3ccccc3NC2=O)CC1)C(=O)N1CCN(c2ccncc2)CC1 [BIBN4096, reference compound]
[1]
  Maximum response: 100.5 % of positive control

## CCCCCCCCCCCCCCCC(=O)N[C@@H](CCCCN)C(=O)N[C@H](C(=O)N[C@@H](CCC(N)=O)C(=O)N[C@@H](CCCCN)C(=O)NCCCCCC(=O)N[C@@H](CO)C(=O)N[C@@H](C)C(=O)N1CCC[C@H]1C(=O)N[C@H](C(=O)N[C@@H](CC(=O)O)C(=O)N1CCC[C@H]1C(=O)N[C@@H](CO)C(=O)N[C@@H](CO)C(=O)N1CCC[C@H]1C(=O)N[C@@H](Cc1c[nH]cn1)C(=O)N[C@@H](CO)C(=O)N[C@@H](Cc1ccc(O)cc1)C(N)=O)C(C)C)C(C)C [ADE651B] (Palmitoyl-KVQK[Ahx]SAPVDPSSPHSY-NH2)
[2]
  Gel-forming ability: N

## CCCCCCCCCCCCCCCC(=O)N[C@@H](CCCCN)C(=O)N[C@H](C(=O)N[C@@H](CCC(N)=O)C(=O)N[C@@H](CCCCN)C(=O)N[C@@H](CCC)C(=O)N[C@@H](CO)C(=O)N[C@@H](C)C(=O)N1CCC[C@H]1C(=O)N[C@H](C(=O)N[C@@H](CC(=O)O)C(=O)N1CCC[C@H]1C(=O)N[C@@H](CO)C(=O)N[C@@H](CO)C(=O)N1CCC[C@H]1C(=O)N[C@@H](Cc1c[nH]cn1)C(=O)N[C@@H](CO)C(=O)N[C@@H](Cc1ccc(O)cc1)C(N)=O)C(C)C)C(C)C [ADE651C] (Palmitoyl-KVQK[Nva]SAPVDPSSPHSY-NH2)
[2]
  Gel-forming ability: Y
[1]; CHO-K1 CALCRL-RAMP1 cAMP Hunter cells, human β-CGRP at EC80 (0.37nM), 30 min pre-incubation, 10-point curve from 10 μM, 3-fold dilutions, duplicate samples, assayed side-by-side once, read-out: IC50 for antagonizing CGRP-induced CLR/RAMP1 signaling
  IC50: 1.3 nM
[1]
  Maximum response: 101 % of positive control
[1]; result in words
  Antagonistic activity toward CGRP-mediated CLR/RAMP1 signaling compared to ADE651: retained the potent antagonistic activity

## CCCCCCCCCCCCCCCC(=O)N[C@@H](CCCCN)C(=O)N[C@H](C(=O)N[C@@H](CCC(N)=O)C(=O)N[C@@H](CCCCN)C(=O)NCCC(=O)N[C@@H](CO)C(=O)N[C@@H](C)C(=O)N1CCC[C@H]1C(=O)N[C@H](C(=O)N[C@@H](CC(=O)O)C(=O)N1CCC[C@H]1C(=O)N[C@@H](CO)C(=O)N[C@@H](CO)C(=O)N1CCC[C@H]1C(=O)N[C@@H](Cc1c[nH]cn1)C(=O)N[C@@H](CO)C(=O)N[C@@H](Cc1ccc(O)cc1)C(N)=O)C(C)C)C(C)C [ADE651P] (Palmitoyl-KVQK[βAla]SAPVDPSSPHSY-NH2)
[2]
  Gel-forming ability: N

## CCCCCCCCCCCCCCCC(=O)N[C@@H](CCCCN)C(=O)N[C@H](C(=O)N[C@@H](CCC(N)=O)C(=O)N[C@@H](CCCCN)C(=O)NC(C)(C)C(=O)N[C@@H](CO)C(=O)N[C@@H](C)C(=O)N1CCC[C@H]1C(=O)N[C@H](C(=O)N[C@@H](CC(=O)O)C(=O)N1CCC[C@H]1C(=O)N[C@@H](CO)C(=O)N[C@@H](CO)C(=O)N1CCC[C@H]1C(=O)N[C@@H](Cc1c[nH]cn1)C(=O)N[C@@H](CO)C(=O)N[C@@H](Cc1ccc(O)cc1)C(N)=O)C(C)C)C(C)C [ADE651A] (Palmitoyl-KVQK[Aib]SAPVDPSSPHSY-NH2)
[2]
  Gel-forming ability: N

## CCCCCCCCCCCCCCCC(=O)N[C@@H](CCCCN)C(=O)N[C@H](C(=O)N[C@@H](CCC(N)=O)C(=O)N[C@@H](CCCCN)C(=O)N[C@@H](CCCC)C(=O)N[C@@H](CO)C(=O)N[C@@H](C)C(=O)N1CCC[C@H]1C(=O)N[C@H](C(=O)N[C@@H](CC(=O)O)C(=O)N1CCC[C@H]1C(=O)N[C@@H](CO)C(=O)N[C@@H](CO)C(=O)N1CCC[C@H]1C(=O)N[C@@H](Cc1c[nH]cn1)C(=O)N[C@@H](CO)C(=O)N[C@@H](Cc1ccc(O)cc1)C(N)=O)C(C)C)C(C)C [ADE651F]
[2]
  Gel-forming ability: N

## CCCCCCCCCCCCCCCC(=O)N[C@@H](CCCCN)C(=O)N[C@H](C(=O)N[C@@H](CCC(N)=O)C(=O)N[C@@H](CCCCN)C(=O)N[C@@H](CC)C(=O)N[C@@H](CO)C(=O)N[C@@H](C)C(=O)N1CCC[C@H]1C(=O)N[C@H](C(=O)N[C@@H](CC(=O)O)C(=O)N1CCC[C@H]1C(=O)N[C@@H](CO)C(=O)N[C@@H](CO)C(=O)N1CCC[C@H]1C(=O)N[C@@H](Cc1c[nH]cn1)C(=O)N[C@@H](CO)C(=O)N[C@@H](Cc1ccc(O)cc1)C(N)=O)C(C)C)C(C)C [ADE651I] (Palmitoyl-KVQK[Abu]SAPVDPSSPHSY-NH2)
[2]
  Gel-forming ability: N

## CCCCCCCCCCCCCCCC(=O)N[C@@H](CCCCN)C(=O)N[C@H](C(=O)N[C@@H](CCC(N)=O)C(=O)N[C@@H](CCCCNC)C(=O)N[C@@H](CC(C)C)C(=O)N[C@@H](CO)C(=O)N[C@@H](C)C(=O)N1CCC[C@H]1C(=O)N[C@H](C(=O)N[C@@H](CC(=O)O)C(=O)N1CCC[C@H]1C(=O)N[C@@H](CO)C(=O)N[C@@H](CO)C(=O)N1CCC[C@H]1C(=O)N[C@@H](Cc1c[nH]cn1)C(=O)N[C@@H](CO)C(=O)N[C@@H](Cc1ccc(O)cc1)C(N)=O)C(C)C)C(C)C [ADE651L]
[2]
  Gel-forming ability: Y

## CCCCCCCCCCCCCCCC(=O)N[C@@H](CCCCN)C(=O)N[C@H](C(=O)N[C@@H](CCC(N)=O)C(=O)N[C@@H](CCCCN)C(=O)N[C@@H](CCCN)C(=O)N[C@@H](CO)C(=O)N[C@@H](C)C(=O)N1CCC[C@H]1C(=O)N[C@H](C(=O)N[C@@H](CC(=O)O)C(=O)N1CCC[C@H]1C(=O)N[C@@H](CO)C(=O)N[C@@H](CO)C(=O)N1CCC[C@H]1C(=O)N[C@@H](Cc1c[nH]cn1)C(=O)N[C@@H](CO)C(=O)N[C@@H](Cc1ccc(O)cc1)C(N)=O)C(C)C)C(C)C [ADE651G] (Palmitoyl-KVQK[Orn]SAPVDPSSPHSY-NH2)
[2]
  Gel-forming ability: N

## CCCCCCCCCCCCCCCC(=O)N[C@@H](CCCCN)C(=O)N[C@H](C(=O)N[C@@H](CCC(N)=O)C(=O)N[C@@H](CCCCN)C(=O)N[C@@H](CCCNC(N)=O)C(=O)N[C@@H](CO)C(=O)N[C@@H](C)C(=O)N1CCC[C@H]1C(=O)N[C@H](C(=O)N[C@@H](CC(=O)O)C(=O)N1CCC[C@H]1C(=O)N[C@@H](CO)C(=O)N[C@@H](CO)C(=O)N1CCC[C@H]1C(=O)N[C@@H](Cc1c[nH]cn1)C(=O)N[C@@H](CO)C(=O)N[C@@H](Cc1ccc(O)cc1)C(N)=O)C(C)C)C(C)C [ADE651D] (Palmitoyl-KVQK[Cit]SAPVDPSSPHSY-NH2)
[2]
  Gel-forming ability: N

## CCCCCCCCCCCCCCCC(=O)N[C@@H](CCCCN)C(=O)N[C@H](C(=O)N[C@@H](CCC(N)=O)C(=O)N[C@@H](CCCCN)C(=O)N[C@@H](CCN)C(=O)N[C@@H](CO)C(=O)N[C@@H](C)C(=O)N1CCC[C@H]1C(=O)N[C@H](C(=O)N[C@@H](CC(=O)O)C(=O)N1CCC[C@H]1C(=O)N[C@@H](CO)C(=O)N[C@@H](CO)C(=O)N1CCC[C@H]1C(=O)N[C@@H](Cc1c[nH]cn1)C(=O)N[C@@H](CO)C(=O)N[C@@H](Cc1ccc(O)cc1)C(N)=O)C(C)C)C(C)C [ADE651K] (Palmitoyl-KVQK[Dab]SAPVDPSSPHSY-NH2)
[2]
  Gel-forming ability: N

## CCCCCCCCCCCCCCCC(=O)N[C@@H](CCCCN)C(=O)N[C@H](C(=O)N[C@@H](CCC(N)=O)C(=O)N[C@@H](CCCCN)C(=O)N1C[C@H](O)C[C@H]1C(=O)N[C@@H](CO)C(=O)N[C@@H](C)C(=O)N1CCC[C@H]1C(=O)N[C@H](C(=O)N[C@@H](CC(=O)O)C(=O)N1CCC[C@H]1C(=O)N[C@@H](CO)C(=O)N[C@@H](CO)C(=O)N1CCC[C@H]1C(=O)N[C@@H](Cc1c[nH]cn1)C(=O)N[C@@H](CO)C(=O)N[C@@H](Cc1ccc(O)cc1)C(N)=O)C(C)C)C(C)C [ADE651E] (Palmitoyl-KVQK[Hyp]SAPVDPSSPHSY-NH2)
[2]
  Gel-forming ability: N

## CCCCCCCCCCCCCCCC(=O)N[C@@H](CCCCN)C(=O)N[C@H](C(=O)N[C@@H](CCC(N)=O)C(=O)N[C@@H](CCCCNC(=O)CCS)C(=O)N[C@@H](CC(C)C)C(=O)N[C@@H](CO)C(=O)N[C@@H](C)C(=O)N1CCC[C@H]1C(=O)N[C@H](C(=O)N[C@@H](CC(=O)O)C(=O)N1CCC[C@H]1C(=O)N[C@@H](CO)C(=O)N[C@@H](CO)C(=O)N1CCC[C@H]1C(=O)N[C@@H](Cc1c[nH]cn1)C(=O)N[C@@H](CO)C(=O)N[C@@H](Cc1ccc(O)cc1)C(N)=O)C(C)C)C(C)C [ADE651O]
[2]
  Gel-forming ability: Y
